Entries after “also recorded” stand apart in the source; their conditions may differ. Like-named read-outs stand apart in the source and are kept apart here.
Experiments:
SARS-CoV-2 [1] = test: microbe, parasite or virus in culture; format: cell-based
Vero CCL-81 cells [2] = test: cells; format: cell-based, African green monkey; details: non-infected Vero CCL-81, 48 h; for IC50: Chlorocebus sabaeus, DAPI, read-out: IC50 (ñ inf), relative cell nucleus number
Vero CCL-81 cells [3] = tested on: Vero CCL-81 cells
Vero CCL-81 cells [4] = test: cells; details: Chlorocebus sabaeus, 48 h, read-out: IC50 (inf), relative cell nucleus number
SARS-CoV-2 [5] = format: cell-based
spike protein = format: cell-based, SARS-CoV-2
ACE2 [6] = format: cell-based, African green monkey; details: compounds at IC50 (50 μM for 9); for ACE2 levels compared to vehicle: infected Vero CCL-81, Western blot; for ACE2 Levels (Vero CCL-81 Monkey Cells): infected cells
A549 cells = test: Sulforhodamine B (SRB) cytotoxicity assay in A549 cells; format: cell-based, human; details: for Cytotoxicity in A549 human lung cells: 48 h, SRB, five serial dilutions
Protocol: (§1) To determine the cytotoxic effect of the tested compounds, the SRB assay was performed according to the previously described protocols. The concentration of each compound that caused 50% of cell growth inhibition (GI50) was determined from the dose response curve. A549 cells were plated in 96-well plates at a previously determined optimal cell concentration (5 × 10^4 cells/mL) and incubated for 24 h. Then, cells were treated with different concentrations of the tested compounds for 48 h. The following procedure was accomplished as previously described. Using the Gen5^TM software (version 1.04.5), the absorbance was measured at 510 nm in a multiplate reader (Synergy^TM Mx, Biotek Instruments Inc., Winooski, VT, USA).

ACE2 [7] = test: ACE2 expression levels in MDA-MB-231 cells (Western blot); format: cell-based, human; details: 10 μM, 48 h
Protocol: For protein expression analysis, MDA-MB-231 and Vero CCL-81 cells were seeded in 6-well plates and incubated for 24 h. Then, the cells were treated with the tested compounds at 10 μM or at their respective IC50. Cell pellets were collected after 48 h incubation, and the following lysis, quantification, and Western Blot procedures were performed as previously described, except for the following points: (i) no phosphatase inhibitor was used; (ii) a total of 15 μg of protein lysates obtained from MDA-MB-231 cells treatment or 50 μg of protein lysates obtained from Vero CCL-81 cells were loaded and separated in 10% SDS-Page gels; (iii) the transference to a nitrocellulose membrane (GE Healthcare Life science, Chalfont St Giles, UK; GE10600002) occurred for 1 h 45 min at 100 V; (iv) the primary antibodies (1:2000) used were: mouse anti-ACE2 monoclonal antibody (CL4035; Thermo Fischer Scientific; Waltham, MA, USA) and mouse anti-actin (sc-47778; Santa Cruz Biotechnology, Dallas, TX, USA).

in vitro = details: African green monkey
[8] = Sulforhodamine B (SRB) cytotoxicity assay in A549 cells; format: cell-based, human; details: human, A549 cells; SRB assay, 48 h; read-out: Cytotoxic IC50 (A549 Human Lung Cells)
Protocol: as §1

[9] = Severe acute respiratory syndrome coronavirus 2, in Primates, 48 h, read-out: Antiviral IC50 (Vero CCL-81 Monkey Cells)
[10] = Homo sapiens, A549, 48 h, read-out: GI50 (concentration that inhibits 50% of cell growth), A549, 48 h, SRB assay

| Structure (SMILES) | Effect on cell infection by SARS-CoV-2 (SARS-CoV-2 [1]) | Cytotoxicity in infected Vero CCL-81 cells (number of cell nuclei) (Vero CCL-81 cells [3]) | Relative cell number of non-infected cells (Vero CCL-81 cells [2]) | Viral titer (SARS-CoV-2 [5]) | Levels of spike protein compared to vehicle (spike protein) | ACE2 levels compared to vehicle (ACE2 [6]) | ACE2 Levels (Vero CCL-81 Monkey Cells) (ACE2 [6]) | IC50 (SARS-CoV-2 [1]; [9]) | further results |
| --- | --- | --- | --- | --- | --- | --- | --- | --- | --- |
| Cc1ccc(C(=O)Nc2ccc(CN3CCN(C)CC3)c(C(F)(F)F)c2)cc1C#Cc1cnc2cccnn12 [Ponatinib, reference compound] | did not inhibit cell infection | some cytotoxicity |  |  |  |  |  |  | IC50 (SARS-CoV-2 [1]; Severe acute respiratory syndrome coronavirus 2, 48 h, read-out: IC50(viral), relative number of infected cells): 0.93 µM; IC50 (Vero CCL-81 cells [2]): 1.36 µM; IC50 (Vero CCL-81 cells [4]): 700 nM |
| O=c1c2ccc(OCc3cn(C4OC(COS(=O)(=O)O)C(OS(=O)(=O)O)C(OS(=O)(=O)O)C4OS(=O)(=O)O)nn3)cc2oc2cc(OCc3cn(C4OC(COS(=O)(=O)O)C(OS(=O)(=O)O)C(OS(=O)(=O)O)C4OS(=O)(=O)O)nn3)ccc12 (stereo not shown) [Compound 9] | reduced cell infection | without causing cytotoxicity | increased the relative cell number of non-infected cells | 7.0 × 10^3 FFU/mL | did not cause any significant change | did not alter ACE2 expression significantly | − |  | IC50(viral), relative number of infected cells (SARS-CoV-2 [1]): not reached at the tested concentrations; Viral Titer and Spike Levels (Vero CCL-81 Monkey Cells) (SARS-CoV-2 [5]): −; Cytotoxicity in A549 human lung cells (A549 cells): did not exhibited cytotoxicity at the tested concentrations |
| O=c1c2ccc(OCc3cn(C4OC(COS(=O)(=O)O)C(OS(=O)(=O)O)C(OS(=O)(=O)O)C4OS(=O)(=O)O)nn3)cc2oc2cc(OCc3cn(C4OC(COS(=O)(=O)O)C(OS(=O)(=O)O)C(OS(=O)(=O)O)C4OS(=O)(=O)O)nn3)ccc12 (stereo not shown) [Compound 7] |  | without causing cytotoxicity | increased the relative cell number of non-infected cells | 6.1 × 10^3 FFU/mL | did not cause any significant change | slight decrease; also recorded: did not alter ACE2 expression significantly | − | 31.7 µM | Viral Titer and Spike Levels (Vero CCL-81 Monkey Cells) (SARS-CoV-2 [5]): −; Cytotoxicity in A549 human lung cells (A549 cells): did not exhibited cytotoxicity at the tested concentrations |
| O=c1c2ccc(OCc3cn(C4OC(CO)C(O)C(O)C4O)nn3)cc2oc2cc(OCc3cn(C4OC(CO)C(O)C(O)C4O)nn3)ccc12 (stereo not shown) [Compound 6] | did not inhibit cell infection |  |  |  |  |  |  |  |  |
| Cc1ccnc(NS(=O)(=O)c2ccc(NC3c4ccccc4Oc4ccccc43)cc2)n1 [Compound 1] |  | some cytotoxicity |  | 1.4 × 10^3 FFU/mL | significantly decreased | did not alter ACE2 expression significantly | − | 12.6 µM | IC50 (Vero CCL-81 cells [2]): 28.9 µM; ACE2 expression levels in MDA-MB-231 cells (ACE2 [7]): did not significantly affect; Cytotoxicity in A549 human lung cells (A549 cells): did not exhibited cytotoxicity at the tested concentrations; GI50 (concentration that inhibits 50% of cell growth) (A549 cells; A549, 48 h, SRB assay): not reached with the concentrations tested; IC50 (in vitro): 18.4 µM |
| C[C@H](CCC(=O)N1CCOCC1)[C@H]1CC[C@H]2[C@@H]3CC[C@@H]4C[C@H](O)CC[C@]4(C)[C@H]3C[C@H](O)[C@]12C [Compound 4] |  |  | increased the relative cell number of non-infected cells | 1.5 × 10^3 FFU/mL | significantly decreased | did not alter ACE2 expression significantly | − | 24.1 µM | ACE2 expression levels in MDA-MB-231 cells (ACE2 [7]): did not significantly affect; IC50 at 48 h [8]: 19.8 µM; GI50 (A549 cells; A549, 48 h, SRB assay, read-out: GI50 (concentration that inhibits 50% of cell growth)): 19.8 µM; GI50 (A549 cells; [10]): 19.8 µM |
| O=C(NC1c2ccccc2Oc2ccccc21)N(O)C1c2ccccc2Oc2ccccc21 [Compound 3] | did not inhibit cell infection | significantly higher cytotoxicity in infected cells compared to non-infected cells | increased the relative cell number of non-infected cells |  |  |  |  |  |  |
| O=c1c2ccccc2oc2c(O)c(OC3OC(COS(=O)(=O)O)C(OS(=O)(=O)O)C(OS(=O)(=O)O)C3OS(=O)(=O)O)ccc12 (stereo not shown) [Compound 8] | did not inhibit cell infection |  |  |  |  |  |  |  |  |
| O=c1c2ccc(NCc3ccccc3)cc2oc2cc(OS(=O)(=O)C(F)(F)F)ccc12 [Compound 10] | did not inhibit cell infection |  | increased the relative cell number of non-infected cells |  |  |  |  |  |  |
| Nc1cccc2c1CCN(c1ccc3c(=O)c4ccc(N5CCc6c(N)cccc6C5)cc4oc3c1)C2 [Compound 5] | did not inhibit cell infection |  |  |  |  |  |  |  |  |
| Cc1cc(C)nc(NS(=O)(=O)c2ccc(NC3c4ccccc4Oc4ccccc43)cc2)n1 [Compound 2] |  | some cytotoxicity |  | 1.7 × 10^3 FFU/mL | significantly decreased | did not alter ACE2 expression significantly | − | 11.9 µM | IC50 (Vero CCL-81 cells [2]): 19.8 µM; ACE2 expression levels in MDA-MB-231 cells (ACE2 [7]): did not significantly affect; IC50 at 48 h [8]: 31.9 µM; GI50 (A549 cells; [10]): 31.9 µM; IC50 (in vitro): 17.2 µM |
